Results: patent US12539281B2 (priority 2021, dated 2026)

Key:
[1] = tested on: blood-brain barrier (BBB)
Method: Photographs of the rats in the prone and supine positions are taken for observation and further analysis.
Experimental rats are treated with varying concentrations of IA EA (in room temperature, 300 μl 5%, 3%, and 1% EA infused slowly in 1 minute, respectively) and are applied through the arterial catheter placed into the left internal carotid artery.
Experimental rats are treated with varying concentrations of IA EA (in room temperature, 300 μl 0.3%, 0.1%, and 0.01% EA infused slowly in 1 minute, respectively). They are applied through the arterial catheter placed into the left internal carotid artery.
The rapid visualization of the extravasated EB/albumin conjugate distribution after IA catheter delivery of 3% EA by fluorescence from EB dye by confocal microscopy is performed.
The fluorescence from EB dye permits the rapid visualization of extravasated EB/albumin conjugate distribution after IA catheter delivery of 3% EA. An untreated rat group is used as a control. IA 3% EA+2% EB solution treatment is used as the testing group.
The photographs of cryostatic brain sections from an untreated rat are stained with DAPI to illustrate the background nuclear staining under confocal imaging, respectively. The photo-/micrographs and magnified confocal images of the brain from the rat treated with IA 3% EA+2% EB solution are obtained for studies and comparison. The micrograph of the whole brain section is scanned by confocal microscopy to obtain the confocal images. The confocal images are further enlarged for observation.

[2] = tested on: blood-brain barrier (BBB); test: Microcatheter 3% EA-mediated delivery of Alexa Fluor 647-labeled anti-human IgG antibody, confocal imaging (Experiment 25); format: in vivo; conditions: 300 μL 3% EA via microcatheter then 10% labeled antibody, rats
Method: Following the perfusion of 300 μL of 3% EA through the intracerebral artery microcatheter, 10% Alexa Fluor® 647-labeled anti-human IgG antibody [EPR4421] (Ab307521, Abcam, UK) is slowly injected along the catheter (5-10 minutes). Two hours later, the brain tissue is perfused and removed after euthanasia. The pathological tissue sections are stained with DAPI, and confocal imaging is performed to evaluate the distribution of Alexa Fluor® 647-labeled anti-human IgG antibody in the rat brain. The experimental rats are injected with 300 μL of 0.9% NaCl without any concentration of EA as a negative control.
The blue color comes from the nuclei stained with DAPI. The pink color comes from the rabbit anti-human IgG antibody labeled with Alexa Fluor 647.

[3] = Comparison of the toxicity of IA NEO100 and IA EA (Experiment 21)
Method: The safety profile of IA 0.3% NEO100 vs. IA 0.3% EA are compared. […] There are 15 experimental mice in each testing group. The potential adverse effects are evaluated.

[4] = tested on: blood-brain barrier (BBB); conditions: 300 μl 3% EA via microcatheter in left ICA, IV 2% EB at 30 min intervals, rats
Text: Evans blue (EB) dye is used as the non-BBB permeable substance.
In this experiment, the microcatheter is placed in the left internal carotid artery (ICA). The left internal carotid artery (ICA) leads to the left hemisphere of the brain. (That is, the selected intracerebral artery is the left internal carotid artery (ICA); and the target area is the left hemisphere of the brain.)

[5] = tested on: blood-brain barrier (BBB); test: Intraarterial EA-mediated antibody delivery into normal rat brain via left internal carotid artery catheter (Experiments 15-17); format: in vivo, rats
Method: The experimental rat is treated with IA 3% EA+50 μg goat anti-rat IgG (H+L) ALEXA FLUOR® 647 (ab150167, Cambridge, MA USA) via the left internal carotid artery catheter. The micrograph of the whole brain section is scanned with a fluorescence microscope. Two sections from the right and left hemispheres of the brain are selected respectively and are enlarged with a magnification of 63×. The scale bar used is 50 μm. The images of the left and right hemispheres, and the enlarged sections are studied.
EA-mediated antibody (goat anti-rat IgG (H+L) ALEXA FLUOR® 647) brain entry via catheter placement through the internal carotid artery (left) are tested. The cryosection photographs and images from the confocal microscope after EA treatment are taken for studies. An EA-untreated group is used as a control group. IA antibody [50 μg goat anti-rat IgG (H+L) ALEXA FLUOR® 647] and IA 3% EA+antibody [50 μg goat anti-rat IgG (H+L) ALEXA FLUOR® 647 are the two comparison groups.
An ALEXA FLUOR® 647 anti-human IgG antibody was applied via IA catheter delivery to rule out the nonspecific binding to the experimental rats. 3% EA-mediated antibody brain entry via catheter placement through the internal carotid artery (left) is tested and compared. The cryosection photographs and images from the confocal microscope after EA treatment are taken for studies. An EA-untreated group is used as a control group. IA antibody [50 μg ALEXA FLUOR® 647 anti-human IgG antibody (ab201841); and IA 3% EA+50 μg ALEXA FLUOR® 647 anti-human IgG antibody (ab201841, Cambridge, MA USA) are the two comparison groups.

[6] = tested on: blood-brain barrier (BBB); test: IA ethyl alcohol, NEO100 or mannitol mediated BBB disruption, extravasated EB dye in perfused mouse brain (Experiments 1-3); format: in vivo, mice; conditions: for EB dye / EB dye penetration level / Patchy, or punctate pattern of EB dye: perfused mouse brain
Method: The method of IA and IC injection is similar to the IV push in the clinic, which comprises essentially the steps of: • pushing the injection composition at a particular infusion flow rate immediately after the placement of the IA catheter into the internal carotid artery (ICA) or the insertion of the injection needle into the left ventricle via the ultrasound-guided intracardiac (IC) puncture at room temperature.
When performing the IA and IC injections, the infusion flow rate is about 5-7 μl/second (0.3-0.45 ml/min), the infusion volume is about […] of the body weight (at 1 μl/g, volume/weight ratio), and USP purified water or sodium chloride is used to reconstitute varied EA solutions at room temperature.
Intracardiac injection of NEO100 or EA can be carried out through the procedure of ultrasound-guided intracardiac (IC) injection. […] The mouse is anesthetized in an induction chamber using 2-3% isoflurane in 100% oxygen at a rate of 0.2-0.5 L/min. Fur over the thorax area is removed and the animal is placed in a stereotactic frame in supine position, securing the upper and lower limbs to avoid body movement. The ultrasound transducer is placed above the chest of the animal, and the injection syringe is anchored to a platform to avoid erratic needle movements. An electrocardiogram monitor is used to monitor heart function during the intracardiac injection.
EB dye is used as the non-BBB permeable substance.
Photographs of the perfused brain tissues of the experimental mice after treatment are taken.
Extravasated EB dye is used as the non-BBB permeable substance.

[7] = IA injection 0.3%, 15 mice per group, number of mice

CCO [ethyl alcohol]
extravasated EB at the lowest concentration of EA ([1]; 300 μl 0.01% EA in 1 minute via left ICA catheter, rats): can still be visualized in the left hemisphere of the brain tissue | extravasated EB in coronal sections ([1]; 300 μl 5%, 3%, and 1% EA in 1 minute via left ICA catheter, 2 hours after, rats): spreading out homogeneously through almost the whole section of the left hemisphere of the brain | autofluorescence from EB/albumin by confocal microscopy ([1]; IA 3% EA+2% EB, whole brain section, left hemisphere, rat): massive spreading of autofluorescence | location of extravasated EB ([1]; left-side IA catheter, EA+2% EB, Fisher 344 rats): inside the left vitreous humor, but not inside the right | penetration and spread of Alexa Fluor 647-labeled anti-human IgG antibodies in the brain [2]: significantly improve the penetration and spread | tested animals that experienced adverse effects ([3]; IA injection 0.3%, 15 mice per group): less than 50% | Immediate Sudden Death [3, 7]: 0 | Intermediate-lasting epilepsy post-injection leading to death [3, 7]: 0 | Long-lasting epilepsy post-injection leading death [3, 7]: 0 | Moderate-lasting epilepsy post-injection and survival to fully recovery [3, 7]: 3 | Transient, mild, or occasional epilepsy post-injection and survival to fully recovery [3, 7]: 3 | Mortality ([3]; IA injection 0.3%, 15 mice per group, listed as EA): 0% | overall mortality rate ([3]; repeated comparative experiments of IA EA and IA NEO100): less than or equal to 1% | time until disrupted BBB is restored [4]: around 2 hours | antibody staining (pink color) in brain, confocal ([5]; IA 3% EA+50 μg ALEXA FLUOR 647 anti-human IgG antibody, rats): even and widely spread pink color | antibody staining (pink color) in brain, confocal ([5]; IA 3% EA+50 μg goat anti-rat IgG (H+L) ALEXA FLUOR 647, rats): even and widely spread pink color | fluorescence of labeled antibody, left hemisphere vs right hemisphere ([5]; IA 3% EA+50 μg goat anti-rat IgG (H+L) ALEXA FLUOR 647 via left ICA catheter, rat): more dense fluorescence than the right hemisphere | spread of EB dye inside the brain tissues ([6]; IA EA at 0.3%, 1%, and 3%, mice, superior and sagittal views): homogenized, evenly spread EB dye inside the brain tissues is observed | EB dye ([6]; IA agent at 0.1%): Observed | EB dye penetration level ([6]; IA agent at 0.1%): Widely | Patchy, or punctate pattern of EB dye ([6]; IA agent at 0.1%): Not | EB dye ([6]; IA agent at 0.3%): Observed | EB dye penetration level ([6]; IA agent at 0.3%): Widely | Patchy, or punctate pattern of EB dye ([6]; IA agent at 0.3%): Not | EB dye ([6]; IA agent at 3%): Observed | EB dye penetration level ([6]; IA agent at 3%): Widely | Patchy, or punctate pattern of EB dye ([6]; IA agent at 3%): Not | EB dye ([6]; IA agent at 5%): Observed | EB dye penetration level ([6]; IA agent at 5%): Widely | Patchy, or punctate pattern of EB dye ([6]; IA agent at 5%): Not
